Patent publication EP0975351B1, “TREATMENT OF MULTIPLE SCLEROSIS THROUGH INGESTION OF COPOLYMER-1” (YEDA RESEARCH AND DEVELOPMENT CO. LTD., priority 1997, dated 1998)

What was measured:
EAE [1] = assay: Suppression of EAE in rats by oral administration; assay type: in vivo, Lewis rats
Experimental: (§1) Rats were immunized with 25 µg of GPBP emulsified 1:1 in CFA containing 4 mg/ml. H37Ra. The emulsion at a total volume of 0.1 ml. was injected into the two hindfoot pads.
Animals were examined daily from day 10 post induction for signs of disease. EAE was scored as follows: 0-no disease, 1-limp tail, 2-hind limb paralysis, 3-paralysis of all four limbs, 4-moribund condition, 5-death.
(§2) Rats were fed with 1 mg GPBP or glatiramer acetate dissolved in PBS by gastric intubation using a sterile feeding tube (Uno Plast, Denmark). Rats were fed 5 times (total dose of 5 mg) before disease induction at intervals of 2-3 days. EAE was induced two days after the last feeding. Control mice and rats were mock fed with PBS.

[2] = tested on: rat spleen cell suspension stimulated with GPBP; assay: Proliferation assay of spleen cells in response to GPBP, fed rats; assay type: cell-based; details: spleen cells of orally fed rats, 10-11 days after EAE induction (Figure 1)
Experimental: as §1, §2
(§3) Proliferation Assay - The proliferation response of spleen cells was tested 10-11 days after EAE induction as described above. Cells from 3 animals in each group were pooled and cultured in triplicate (5x10^5 mouse cells and 2x10^5 rat cells) in microtiter plates with various antigen concentrations (GPBP) in a final volume of 0.2ml. Microtiter plates contained RPMI 1640 (available from Sigma Biochemicals, St. Louis, Missouri) culture medium supplemented with 1% autologous serum. After 72 hr. of incubation, cells were pulsed with 1 µCi {^3H}-thymidine for 18 hr and then harvested onto filter papers and radioactivity was counted.

spleen cells = assay: Proliferation assay of spleen cells in response to GPBP, fed mice; assay type: cell-based; details: spleen cells of orally fed mice, 10-11 days after EAE induction (Figure 2)
Experimental: Induction and Assessment of EAE - Mice were injected with 200 µg GPBP emulsified in an equal volume of complete Freund's adjuvant (CFA) containing 4 mg/ml mycobacterium tuberculosis (H37Ra) (Difco Lab, Detroit, Mich.). The emulsion at a total volume of 0.1 ml was injected into all four footpads. Immediately after and 24 hours later, pertussis toxin (250ng/mouse) (Sigma) was injected intravenously.
Induction of Oral Tolerance - Mice were fed with 250 µg GPBP or glatiramer acetate dissolved in phosphate buffered saline (PBS) on days -7, -5, -3, 0, 2, 4 and 6 by gastric intubation with an 18-gauge stainless steel feeding needle (Thomas). EAE was induced on day 0.
as §3

[3] = tested on: T-cell line derived from spleens of glatiramer acetate fed rats; assay: Cytokine assay of T-cell line from spleens of fed rats (ELISA); assay type: cell-based; details: rat line cultured with glatiramer acetate as antigen (Figure 6)
Experimental: Isolation of glatiramer acetate specific T cell lines - Lewis rats were fed 5 times with 1 mg glatiramer acetate and (SJUJ x BALB/c)F, mice 7 times with 250 µg glatiramer acetate, at intervals of 2-3 days. Four to twelve days after the last feeding animals were sacrificed and their spleens removed.
Spleen cells of 3 animals were pooled and incubated (50 x 10^6/plate) with glatiramer acetate (500 µg) in medium containing 1 % autologous serum for 4 days. Every 14-21 days cells (4-6 x 10^6/plate) were restimulated by 3 days exposure to copolymer-1 (500 µg) presented on syngeneic irradiated (3000 rad) rat thymocytes (100 x 10^6/plate) or mouse splenocytes (50 x 10^6/plate). Stimulation was followed by propagation in 10% supernatant of Con A activated normal mouse spleen cells as T cell growth factor (TCGF).
Cytokine Assay - T cells of rat line (0.5 x 10^6/ml) were incubated with irradiated thymocytes (10 x 10^6) with or without the indicated antigen (50µg glatiramer acetate; 5µg Con A). Cells were cultured for 24 hours in RPMI 1640 supplemented with 10% FCS for IL-2, TNFα, IL-4 and IL-10-measurements and in serum free medium - DCCM-1 (Biological Industries, Kibbutz Beit Haemek, Israel) for 72 hours for TGFβ measurement.
Cytokine levels in supernatants were measured in a quantitative ELISA using pairs of monoclonal antibodies specific for the corresponding cytokines.

[4] = tested on: MBP-specific T suppressor Inducer factor; assay: Assay for MBP-specific T suppressor inducer factor in plasma (3C9 antibody); assay type: in vivo, Rhesus Monkeys; details: for MBP-specific T suppressor Inducer factor: plasma 1:20 dilution; for anti-Tsfi (3C9 Ab): plasma material bound to MBP (2.5µg)
From the text: The analysis, for MBP-specific Tsfi in the plasma of the three monkeys in this Example are seen in Tables 5 and 6 below. None of the animals produced MBP-specific Tsfi until day +13 following EAE induction with MBP. […] Glatiramer acetate fed animals 18497 and 18498 consistently produced significant levels of Tsfi from day +13 until day +41 shortly before termination.
Recombinant human TGF-beta reacted with the anti-TGF-beta, but not 3C9 antibody. Table 5: Assay for MBP-specific T suppressor Inducer factora

EAE [5] = assay: EAE in Rhesus monkeys, enteric-coated versus cracked coating capsules (Example 4); assay type: in vivo; details: for protection from the disease: Fig. 10
Experimental: Six monkeys were treated and subsequent analyses performed substantially according to the protocol described for Example 3 hereinabove.
Control placebo-fed animal 18746 was fed with capsules containing glucose. Animal 18586 was fed with 1 mg glatiramer acetate in capsules with cracked […]. Animal 18586 was fed with 1 mg glatiramer acetate in capsules with cracked enteric coating. Animal 18639 was fed with 20 mg glatiramer acetate in capsules with cracked enteric coating. […] Animal 18962 was fed with 20 mg glatiramer acetate in intact enteric coated capsules.
The schedule of feeding, disease induction and follow-up were substantially the same as those of Example 3 described hereinabove.

[6] = tested on: exacerbating-remitting multiple sclerosis; details: daily subcutaneous injections, phase III clinical trials; cited from earlier work
[7] = animal 18497, 1mg/feeding then 20mg capsules after day 33, day +41
[8] = animal 18497, 1mg/feeding, day +6
[9] = animal 18497, 1mg/feeding, day +13
[10] = animal 18497, 1mg/feeding, day +27
[11] = animal 18498, 20mg/feeding, day +6
[12] = animal 18498, 20mg/feeding, day +13
[13] = animal 18498, 20mg/feeding, day +27
[14] = animal 18498, 20mg/feeding, day +41
[15] = capsules with cracked enteric coating, 1 mg (animal 18586) and 20 mg (animal 18639)

glatiramer acetate
Mean Onset (EAE [1]; Lewis rats fed 1 mg 5 times before EAE induction, PBS control 11.9): 12.6 days | Mean Maximal Score±SD (EAE [1]; Lewis rats fed 1 mg 5 times before EAE induction, score 0-5, PBS control 1.8±0.5): 0.78±0.45 | inhibition of incidence of EAE (EAE [1]; compared to PBS fed rats): 54% | inhibition of severity of EAE (EAE [1]; compared to PBS fed rats): 57% | proliferative responses to GPBP [2]: almost complete inhibition | proliferative responses to GPBP (spleen cells): almost complete inhibition | cytokine secretion response of T-cell line [3]: secreted IL-2, some IL-10 and TGFβ but not TNFα or IL-4 | MBP-specific T suppressor Inducer factor ([4]; animal 18497, 1mg/feeding then 20mg capsules after day 33, day +34): .66 OD at 405nm | MBP-specific T suppressor Inducer factor [4, 7]: .76 OD at 405nm | MBP-specific T suppressor Inducer factor [4, 8]: none | MBP-specific T suppressor Inducer factor [4, 9]: .60 OD at 405nm | MBP-specific T suppressor Inducer factor ([4]; animal 18497, 1mg/feeding, day +20): .61 OD at 405nm | MBP-specific T suppressor Inducer factor [4, 10]: .56 OD at 405nm | MBP-specific T suppressor Inducer factor ([4]; animal 18497, 1mg/feeding, day -1): none | MBP-specific T suppressor Inducer factor ([4]; animal 18497, 1mg/feeding, day -13): none | MBP-specific T suppressor Inducer factor [4, 11]: none | MBP-specific T suppressor Inducer factor [4, 12]: .32 OD at 405nm | MBP-specific T suppressor Inducer factor ([4]; animal 18498, 20mg/feeding, day +20): .32 OD at 405nm | MBP-specific T suppressor Inducer factor [4, 13]: .42 OD at 405nm | MBP-specific T suppressor Inducer factor ([4]; animal 18498, 20mg/feeding, day +34): .40 OD at 405nm | MBP-specific T suppressor Inducer factor [4, 14]: .40 OD at 405nm | MBP-specific T suppressor Inducer factor ([4]; animal 18498, 20mg/feeding, day -1): none | MBP-specific T suppressor Inducer factor ([4]; animal 18498, 20mg/feeding, day -13): none | anti-Tsfi (3C9 Ab) [4, 7]: 0.76 OD405 nm | anti-Tsfi (3C9 Ab) [4, 8]: none | anti-Tsfi (3C9 Ab) [4, 9]: 0.60 OD405 nm | anti-Tsfi (3C9 Ab) [4, 10]: 0.56 OD405 nm | anti-Tsfi (3C9 Ab) [4, 11]: none | anti-Tsfi (3C9 Ab) [4, 12]: 0.32 OD405 nm | anti-Tsfi (3C9 Ab) [4, 13]: 0.42 OD405 nm | anti-Tsfi (3C9 Ab) [4, 14]: 0.40 OD405 nm | time to death from disease manifestations (EAE [5]; [15]): 2 to 3 days | protection from the disease (EAE [5]; [15]): not protected from the disease | protection from the disease (EAE [5]; intact enteric coated capsules, 1 mg, 10 mg, 20 mg (animals 18724, 18810, 18962)): fully protected from the disease | signs of EAE (EAE [5]; intact enteric coated capsules, 1 mg, 10 mg, 20 mg, until day 60 when sacrificed): developed no signs of EAE until day 60 | progression of disability and relapse rate [6]: slow progression of disability and reduce the relapse rate
